# Patent publication US10370401B2, “Substituted nucleosides, nucleotides and analogs thereof” (Alios BioPharma, Inc., priority 2013, dated 2019)
# Where two headings read alike, the source gives them in different places.
# Assays:
# [1] = test system: Dengue virus type 2 strain New Guinea C (NG-C) or Dengue virus type 4 strain H241; assay: Dengue virus cell-based assay (Huh-7.5 cells, CellTiter-Glo)
# Experimental: The Dengue virus type 2 strain New Guinea C (NG-C) and the Dengue virus type 4 strain H241 were purchased from ATCC (Manassas, Va.; item numbers VR-1584 and VR-1490, respectively). 24 h prior to dosing, Huh-7.5 cells were plated in 96 well plates at a density of 1.5×10^5/mL in DMEM medium supplemented with 10% fetal bovine serum, 1% HEPES buffer, 1% Penicillin/Streptomycin and 1% non-essential amino acids (all Mediatech, Manassas, Va.). At the day of infection, serially diluted compounds were added to cells and incubated for 4 h. After the end of the 4 h pre-incubation period, cells were infected with either Dengue virus type 2 NG-C or Dengue virus type 4H241. The virus inoculum was selected to cause 80-90% cytopathic effect in five to six days. Infected cells were incubated for five (NG-C) to six (H241) days at 37° C., 5% CO2. To develop the assay, 100 μL media was replaced with 100 μl CellTiter-Glo® reagent (Promega, Madison, Wis.), and incubated for 10 mins at RT. Luminescence was measured on a Victor X3 multi-label plate reader. Potential compound cytotoxicity of was determined using uninfected parallel cultures.
# Human rhinovirus 1B = assay: Picornavirus assay (CPE, CellTiter-Glo, HeLa-OHIO cells); type: cell-based
# [2] = target: human rhinovirus 16 polymerase (HRV16pol) (Human rhinovirus 16, UniProt Q82122); assay: biochemical; settings: HRV16pol, 2.5 h at 30° C., mean of several independent experiments; read-out: IC50
# [3] = target: dengue virus NS5 polymerase domain (DENVpol, serotype 2, New Guinea C strain) (Dengue virus type 2, UniProt P14340); assay: Dengue virus polymerase inhibition assay; type: biochemical; settings: DENVpol serotype 2, 3 hours at 30° C., mean of several independent experiments
# Experimental: The enzyme activity of dengue virus NS5 polymerase domain (DENVpol, serotype 2, New Guinea C strain) was measured as an incorporation of tritiated NMP into acid-insoluble RNA products. DENVpol assay reactions contained 100 nM recombinant enzyme, 50 nM heteropolymeric RNA, about 0.5 μCi tritiated NTP, 0.33 μM of competing cold NTP, 40 mM HEPES (pH 7.5), 3 mM dithiothreitol, and 2 mM MgCl2. Standard reactions were incubated for 3 hours at 30° C., in the presence of increasing concentration of inhibitor. At the end of the reaction, RNA was precipitated with 10% TCA, and acid-insoluble RNA products were filtered on a size exclusion 96-well plate. After washing of the plate, scintillation liquid was added and radiolabeled RNA products were detected according to standard procedures with a Trilux Topcount scintillation counter. The compound concentration at which the enzyme-catalyzed rate was reduced by 50% (IC50) was calculated by fitting the data to a non-linear regression (sigmoidal).
# subgenomic HCV replicon = assay: HCV replicon assay (Huh-7, luciferase reporter); type: cell-based; settings: Hepatitis C virus
# NS5B570-Con1 (Delta-21) = NS5B570-Con1 (Delta-21) (Hepatitis C virus genotype 1b, UniProt Q9WMX2); assay: biochemical; set-up: species or system HCV
# [4] = Rhinovirus A, 96 h, Human rhinovirus 1B, HeLa-OHIO cells, 4 d at 33° C., read-out: EC50
# [5] = Huh-7.5 cells, antiviral activity, dengue type (2 NG-C or 4 H241) not given, read-out: IC50
# [6] = Human rhinovirus 1B, HeLa-OHIO cells, 4 d at 33° C., read-out: EC50
# [7] = Huh-7 HCV replicon cells, luciferase, 72 hours, read-out: EC50
# human rhinovirus 16 polymerase (HRV16pol), sequence (Q82122 1694-2153 limits assumed): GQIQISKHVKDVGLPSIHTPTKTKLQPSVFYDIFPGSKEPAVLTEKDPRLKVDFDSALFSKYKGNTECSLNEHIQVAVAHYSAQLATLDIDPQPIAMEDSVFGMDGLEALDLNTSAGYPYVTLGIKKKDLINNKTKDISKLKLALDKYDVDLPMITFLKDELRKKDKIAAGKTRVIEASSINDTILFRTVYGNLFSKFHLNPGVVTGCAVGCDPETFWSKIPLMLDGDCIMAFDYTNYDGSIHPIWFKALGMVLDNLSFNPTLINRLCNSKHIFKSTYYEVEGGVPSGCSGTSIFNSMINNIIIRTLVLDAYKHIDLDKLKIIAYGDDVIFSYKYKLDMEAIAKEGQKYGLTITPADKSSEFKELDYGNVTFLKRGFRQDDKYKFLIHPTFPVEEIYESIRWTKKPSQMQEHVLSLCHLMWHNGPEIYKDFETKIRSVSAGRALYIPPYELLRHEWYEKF
structure (smiles),measurement,setting,value
CC(C)OC(=O)OCOP(=O)(OCOC(=O)OC(C)C)OC[C@@]1(F)O[C@@H](n2ccc(=O)[nH]c2=O)[C@](C)(O)[C@@H]1O [Compound 9],IC50,"[1]; Dengue virus, Huh7.5",< 10000 nM
same,EC50,Human rhinovirus 1B; [4],< 1 µM
CCOc1nc(N)nc2c1ncn2[C@@H]1O[C@](F)(COP(=O)(N[C@@H](C)C(=O)OC2CCCCC2)Oc2ccccc2)[C@@H](O)[C@@]1(C)O (some centres unmarked) [Compound 10],IC50,"[1]; Dengue virus, Huh7.5",< 1000 nM
same,EC50,"Human rhinovirus 1B; Rhinovirus A, 96 h",< 1 µM
C#C[C@]1(O)[C@H](n2ccc(=O)[nH]c2=O)O[C@](F)(COP(=O)(N[C@@H](C)C(=O)OC2CCCCC2)Oc2ccccc2)[C@H]1O (some centres unmarked) [Compound 13],IC50,"[1]; Dengue virus, Huh7.5",< 1000 nM
same,EC50,"Human rhinovirus 1B; Rhinovirus A, 96 h",< 1 µM
CCOc1nc(N)nc2c1ncn2[C@@H]1O[C@](F)(CO[P@](=O)(N[C@@H](C)C(=O)OC2CCCCC2)Oc2ccccc2)[C@@H](O)[C@@]1(C)F [Compound 25],IC50,"[1]; Dengue virus, Huh7.5",< 1000 nM
same,EC50,"Human rhinovirus 1B; Rhinovirus A, 96 h",< 1 µM
CCOc1nc(N)nc2c1ncn2[C@@H]1O[C@](F)(CO[P@@](=O)(N[C@@H](C)C(=O)OC2CCCCC2)Oc2ccccc2)[C@@H](O)[C@@]1(C)F [Compound 26],IC50,"[1]; Dengue virus, Huh7.5",< 1000 nM
same,EC50,"Human rhinovirus 1B; Rhinovirus A, 96 h",1 to 10 µM
C#C[C@]1(O)[C@H](n2cnc3c(OCC)nc(N)nc32)O[C@](F)(CO[P@](=O)(N[C@@H](C)C(=O)OC2CCCCC2)Oc2ccccc2)[C@H]1O [Compound 27],IC50,[1]; [5],< 10000 nM
same,EC50,Human rhinovirus 1B; [6],< 1 µM
C#C[C@]1(O)[C@H](n2cnc3c(OCC)nc(N)nc32)O[C@](F)(CO[P@@](=O)(N[C@@H](C)C(=O)OC2CCCCC2)Oc2ccccc2)[C@H]1O [Compound 28],IC50,[1]; [5],< 10000 nM
same,EC50,Human rhinovirus 1B; [6],< 1 µM
C[C@]1(O)[C@H](n2ccc(=O)[nH]c2=O)O[C@](F)(COP(=O)(O)OP(=O)(O)OP(=O)(O)O)[C@H]1O [Compound 110],IC50,[2],< 10000 nM
same,IC50,[3],< 1 µM
CC(C)OC(=O)OCOP(=O)(OCOC(=O)OC(C)C)OC[C@@]1(CF)O[C@@H](n2ccc(=O)n(COP(=O)(O)O)c2=O)[C@](C)(O)[C@@H]1O [Compound 284],EC50,subgenomic HCV replicon; [7],1 to 10 µM
same,EC50,Human rhinovirus 1B; [4],1 to 10 µM
CC(C)OC(=O)OCOP(=O)(N[C@@H](C)C(=O)OC(C)C)OC[C@@]1(CF)O[C@@H](n2ccc(=O)[nH]c2=O)[C@](C)(O)[C@@H]1O (some centres unmarked) [Compound 286],EC50,subgenomic HCV replicon; [7],< 1 µM
same,EC50,Human rhinovirus 1B; [4],1 to 10 µM
CC(C)(CO)C(=O)SCCOP(=O)(OCCSC(=O)C(C)(C)CO)OC[C@@]1(CF)O[C@@H](n2ccc(=O)[nH]c2=O)[C@](C)(O)[C@@H]1O [Compound 288],EC50,"subgenomic HCV replicon; Huh-7, 72 h",10 to 100 µM
same,EC50,"Human rhinovirus 1B; Rhinovirus A, 96 h",10 to 100 µM
Nc1ccn([C@@H]2O[C@H](CO)[C@@H](O)[C@]2(O)CF)c(=O)n1 [Compound 295],EC50,subgenomic HCV replicon; [7],1 to 10 µM
same,EC50,Human rhinovirus 1B; [4],10 to 100 µM
N#C[C@]1(CO)O[C@@H](n2ccc(N)nc2=O)C(F)(F)[C@@H]1O [Compound 298],EC50,subgenomic HCV replicon; [7],10 to 100 µM
same,EC50,Human rhinovirus 1B; [4],1 to 10 µM
C[C@]1(F)[C@H](n2cnc3c(=O)[nH]c(N)nc32)O[C@](F)(COP(=O)(O)OP(=O)(O)OP(=O)(O)O)[C@H]1O [compound 19],IC50,[2],< 1000 nM
same,IC50,NS5B570-Con1 (Delta-21),< 1000 nM
same,IC50,[3],< 10 µM
C[C@]1(F)[C@H](n2ccc(N)nc2=O)O[C@](F)(COP(=O)(O)OP(=O)(O)OP(=O)(O)O)[C@H]1O [compound 29],IC50,[2],< 1000 nM
same,IC50,[3],< 1 µM
C[C@@]1(O)[C@H](O)[C@@](CF)(COP(=O)(O)OP(=O)(O)OP(=O)(O)O)O[C@H]1n1cnc2c(=O)[nH]c(N)nc21 [compound 34],IC50,[2],< 1000 nM
same,IC50,NS5B570-Con1 (Delta-21),< 1000 nM
same,IC50,[3],< 1 µM
C[C@@]1(O)[C@H](O)[C@@](CF)(COP(=O)(O)OP(=O)(O)OP(=O)(O)O)O[C@H]1n1ccc(N)nc1=O [compound 91],IC50,[2],< 10000 nM
same,IC50,NS5B570-Con1 (Delta-21),< 1000 nM
same,IC50,[3],< 100 µM
C[C@@]1(O)[C@H](O)[C@@](CF)(COP(=O)(O)OP(=O)(O)OP(=O)(O)O)O[C@H]1n1ccc(=O)[nH]c1=O [compound 92],IC50,[2],< 1000 nM
same,IC50,NS5B570-Con1 (Delta-21),< 1000 nM
same,IC50,[3],< 10 µM
C[C@]1(O)[C@H](n2cnc3c(=O)[nH]c(N)nc32)O[C@](F)(COP(=O)(O)OP(=O)(O)OP(=O)(O)O)[C@H]1F [compound 101],IC50,[2],< 1000 nM
same,IC50,NS5B570-Con1 (Delta-21),< 1000 nM
same,IC50,[3],< 10 µM
C#C[C@]1(O)[C@H](n2cnc3c(=O)[nH]c(N)nc32)O[C@](F)(COP(=O)(O)OP(=O)(O)OP(=O)(O)O)[C@H]1F [compound 103],IC50,[2],< 1000 nM
same,IC50,NS5B570-Con1 (Delta-21),< 1000 nM
same,IC50,[3],< 1 µM
C#C[C@]1(O)[C@H](n2ccc(=O)[nH]c2=O)O[C@](F)(COP(=O)(O)OP(=O)(O)OP(=O)(O)O)[C@H]1O [compound 114],IC50,[2],< 1000 nM
same,IC50,[3],< 10 µM
C#C[C@]1(O)[C@H](n2cnc3c(=O)[nH]c(N)nc32)O[C@](F)(COP(=O)(O)OP(=O)(O)OP(=O)(O)O)[C@H]1O [compound 115],IC50,[2],< 1000 nM
same,IC50,[3],< 1 µM
C#C[C@]1(F)[C@H](n2cnc3c(=O)[nH]c(N)nc32)O[C@](F)(COP(=O)(O)OP(=O)(O)OP(=O)(O)O)[C@H]1O [compound 123],IC50,[2],< 1000 nM
same,IC50,[3],< 10 µM
C[C@]1(O)[C@H](n2ccc(N)nc2=O)O[C@](F)(COP(=O)(O)OP(=O)(O)OP(=O)(O)O)[C@H]1O [compound 124],IC50,[2],< 1000 nM
same,IC50,[3],< 10 µM
C[C@]1(F)[C@H](n2ccc(=O)[nH]c2=O)O[C@](F)(COP(=O)(O)OP(=O)(O)OP(=O)(O)O)[C@H]1O [compound 147],IC50,[3],< 10 µM
C[C@]1(Cl)[C@H](n2ccc(=O)[nH]c2=O)O[C@](F)(COP(=O)(O)OP(=O)(O)OP(=O)(O)O)[C@H]1O [compound 149],IC50,NS5B570-Con1 (Delta-21),< 1000 nM
same,IC50,[3],< 10 µM
C[C@@]1(F)[C@H](O)[C@@](CF)(COP(=O)(O)OP(=O)(O)OP(=O)(O)O)O[C@H]1n1cnc2c(=O)[nH]c(N)nc21 [compound 162],IC50,[2],< 1000 nM
same,IC50,NS5B570-Con1 (Delta-21),1000 to 10000 nM
same,IC50,[3],< 10 µM
Nc1nc2c(ncn2[C@@H]2O[C@](F)(COP(=O)(O)OP(=O)(O)OP(=O)(O)O)[C@@H](O)[C@H]2F)c(=O)[nH]1 [compound 163],IC50,[3],< 10 µM
Nc1ccn([C@@H]2O[C@](CCl)(COP(=O)(O)OP(=O)(O)OP(=O)(O)O)[C@@H](O)[C@H]2O)c(=O)n1 [compound 164],IC50,[3],< 100 µM
C[C@]1(CO)O[C@@H](n2ccc(N)nc2=O)C(F)(F)[C@@H]1O [compound 300],EC50,subgenomic HCV replicon; [7],10 to 100 µM
same,EC50,Human rhinovirus 1B; [4],< 1 µM
Nc1ncnc2c1ncn2[C@@H]1O[C@H](CO)[C@@H](O)[C@]1(O)CF [compound 301],EC50,subgenomic HCV replicon; [7],< 1 µM
same,EC50,Human rhinovirus 1B; [4],10 to 100 µM
C=C[C@]1(CO)O[C@@H](n2ccc(N)nc2=O)[C@H](O)[C@@H]1O [compound 303],EC50,subgenomic HCV replicon; [7],1 to 10 µM
same,EC50,Human rhinovirus 1B; [4],10 to 100 µM
